Legend:
Assay in all cases: relative viability (nuclei count vs DMSO), 5 days (fraction); higher = more cells survive
[1] = test system: HOP-62
Method in brief: (§1)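 Lung cancer cell lines, seeded in 1536-well plates, were treated the following day by pin tool with a single drug or with five library-drug doses (not always all listed) in √10 steps on top of a fixed anchor-drug dose. Cells were fixed and nuclei stained in one step after 5 days, and nuclei were counted. Relative viability is the nuclei count for treated wells divided by that for vehicle wells, reported as medians of duplicate plates.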

[2] = test system: SW 1573
Method in brief: as §1

[3] = test system: NCI-H1755
Method in brief: as §1

[4] = test system: NCI-H460
Method in brief: as §1

[5] = test system: NCI-H2228
Method in brief: as §1

[6] = test system: A-427
Method in brief: as §1

[7] = test system: LXF-289
Method in brief: as §1

[8] = test system: HCC-15
Method in brief: as §1

[9] = test system: NCI-H647
Method in brief: as §1

[10] = test system: RERF-LC-KJ
Method in brief: as §1

[11] = test system: PC-3 [JPC-3]
Method in brief: as §1

[12] = test system: NCI-H1975
Method in brief: as §1

[13] = test system: LC-2-ad
Method in brief: as §1

[14] = test system: NCI-H1734
Method in brief: as §1

[15] = test system: HCC-78
Method in brief: as §1

[16] = test system: SK-LU-1
Method in brief: as §1

[17] = test system: NCI-H2126
Method in brief: as §1

[18] = test system: LOU-NH91
Method in brief: as §1

[19] = test system: NCI-H1792
Method in brief: as §1

[20] = test system: NCI-H1915
Method in brief: as §1

[21] = test system: NCI-H2347
Method in brief: as §1

Work on `Oc1nc(-c2ccc(C(F)(F)F)cc2)nc2c1CSCC2` [XAV939] + CC(C)C[C@H](NC(=O)[C@H](Cc1ccccc1)NC(=O)c1cnccn1)B(O)O [Bortezomib] (partner 0.002 µM) yielded a relative viability ([1]; first compound 0.08 µM) of 1.19, a relative viability ([1]; first compound 0.253 µM) of 0.73 and a relative viability ([1]; first compound 0.8 µM) of 0.988. The relative viability ([1]; first compound 2.53 µM) was 0.352, the relative viability ([2]; first compound 0.08 µM) was 0.994 and the relative viability ([2]; first compound 0.253 µM) was 1.01. It also gave a relative viability ([2]; first compound 0.8 µM) of 1.1, a relative viability ([2]; first compound 2.53 µM) of 0.676 and a relative viability ([3]; first compound 0.08 µM) of 0.91. It also gave a relative viability ([3]; first compound 0.253 µM) of 0.884, a relative viability ([3]; first compound 0.8 µM) of 0.86 and a relative viability ([3]; first compound 2.53 µM) of 0.868. It also gave a relative viability ([4]; first compound 0.08 µM) of 1.45, a relative viability ([4]; first compound 0.253 µM) of 1.07 and a relative viability ([4]; first compound 0.8 µM) of 1.05. It also gave a relative viability ([4]; first compound 2.53 µM) of 1.08, a relative viability ([5]; first compound 0.08 µM) of 1.31 and a relative viability ([5]; first compound 0.253 µM) of 0.711. It also gave a relative viability ([5]; first compound 0.8 µM) of 1.01, a relative viability ([5]; first compound 2.53 µM) of 0.861 and a relative viability ([6]; first compound 0.08 µM) of 1.06. The relative viability ([6]; first compound 0.253 µM) was 0.977, the relative viability ([6]; first compound 0.8 µM) was 0.883 and the relative viability ([6]; first compound 2.53 µM) was 0.769. The relative viability ([7]; first compound 0.08 µM) was 1.05, the relative viability ([7]; first compound 0.253 µM) was 0.966 and the relative viability ([7]; first compound 0.8 µM) was 0.994. For the same compound, the relative viability ([7]; first compound 2.53 µM) was 1.05, the relative viability ([8]; first compound 0.08 µM) was 1.2 and the relative viability ([8]; first compound 0.253 µM) was 0.938. For the same compound, the relative viability ([8]; first compound 0.8 µM) was 1.05, the relative viability ([8]; first compound 2.53 µM) was 1.06 and the relative viability ([9]; first compound 0.08 µM) was 1.16. For the same compound, the relative viability ([9]; first compound 0.253 µM) was 0.747, the relative viability ([9]; first compound 0.8 µM) was 0.81 and the relative viability ([9]; first compound 2.53 µM) was 0.988. The relative viability ([10]; first compound 0.08 µM) was 0.864, the relative viability ([10]; first compound 0.253 µM) was 0.98 and the relative viability ([10]; first compound 0.8 µM) was 0.886. It also gave a relative viability ([10]; first compound 2.53 µM) of 0.744, a relative viability ([11]; first compound 0.08 µM) of 0.839 and a relative viability ([11]; first compound 0.253 µM) of 0.722. It also gave a relative viability ([11]; first compound 0.8 µM) of 0.831, a relative viability ([11]; first compound 2.53 µM) of 0.755 and a relative viability ([12]; first compound 0.08 µM) of 0.305. It also gave a relative viability ([12]; first compound 0.253 µM) of 0.352, a relative viability ([12]; first compound 0.8 µM) of 0.346 and a relative viability ([12]; first compound 2.53 µM) of 0.349. It also gave a relative viability ([13]; first compound 0.08 µM) of 1.01, a relative viability ([13]; first compound 0.253 µM) of 0.919 and a relative viability ([13]; first compound 0.8 µM) of 0.984. The relative viability ([13]; first compound 2.53 µM) was 0.887, the relative viability ([14]; first compound 0.08 µM) was 1.04 and the relative viability ([14]; first compound 0.253 µM) was 0.907. For the same compound, the relative viability ([14]; first compound 0.8 µM) was 0.709, the relative viability ([14]; first compound 2.53 µM) was 0.86 and the relative viability ([15]; first compound 0.08 µM) was 0.517. It also gave a relative viability ([15]; first compound 0.253 µM) of 0.363, a relative viability ([15]; first compound 0.8 µM) of 0.526 and a relative viability ([15]; first compound 2.53 µM) of 0.405. It also gave a relative viability ([16]; first compound 0.08 µM) of 1.16, a relative viability ([16]; first compound 0.253 µM) of 1.13 and a relative viability ([16]; first compound 0.8 µM) of 1.05. For the same compound, the relative viability ([16]; first compound 2.53 µM) was 1.39, the relative viability ([17]; first compound 0.08 µM) was 1.18 and the relative viability ([17]; first compound 0.253 µM) was 0.984. It also gave a relative viability ([17]; first compound 0.8 µM) of 1.08, a relative viability ([17]; first compound 2.53 µM) of 1.02 and a relative viability ([18]; first compound 0.08 µM) of 0.438. For the same compound, the relative viability ([18]; first compound 0.253 µM) was 0.464, the relative viability ([18]; first compound 0.8 µM) was 0.49 and the relative viability ([18]; first compound 2.53 µM) was 0.415. The relative viability ([19]; first compound 0.08 µM) was 0.945, the relative viability ([19]; first compound 0.253 µM) was 0.943 and the relative viability ([19]; first compound 0.8 µM) was 0.973. It also gave a relative viability ([19]; first compound 2.53 µM) of 0.869, a relative viability ([20]; first compound 0.08 µM) of 1.06 and a relative viability ([20]; first compound 0.253 µM) of 0.974. It also gave a relative viability ([20]; first compound 0.8 µM) of 0.983, a relative viability ([20]; first compound 2.53 µM) of 1.14 and a relative viability ([21]; first compound 0.08 µM) of 1.27. For the same compound, the relative viability ([21]; first compound 0.253 µM) was 0.75, the relative viability ([21]; first compound 0.8 µM) was 1.02 and the relative viability ([21]; first compound 2.53 µM) was 0.837.
